Like-named read-outs stand apart in the source and are kept apart here.
Key:
[1] = target: T1, Vasopressin V1 receptor subtype in Human Platelet Membranes (Homo sapiens, UniProt P37288); test: Binding to Vasopressin V1 receptor subtype in Human Platelet Membranes
T1 construct: Frozen platelet rich plasma (PRP), received from the Hudson Valley Blood Services, are thawed to room temperature; tissue Hudson Valley Blood Services; host or cells: human platelets (platelet rich plasma)
Description: Radioligand Binding Experiments with Human Platelet Membranes
Platelet Source: Hudson Valley Blood Services,
Westchester Medical Center, Valhalla, N.Y.
Platelet Membrane Preparation
Frozen platelet rich plasma (PRP), received from the Hudson Valley Blood Services, are thawed to room temperature. The tubes containing the PRP are centrifuged at 16,000×g for 10 min. at 4° C. and the supernatant fluid discarded. The platelets resuspended in an equal volume of 50.0 mM Tris.HCl, pH 7.5 containing 120 mM NaCl and 20.0 mM EDTA. The suspension is recentrifuged at 16,000×g for 10 min. This washing step is repeated one more time. The wash discarded and the lysed pellets homogenized in low ionic strength buffer of Tris.HCl, 5.0 mM, pH 7.5 containing 5.0 mM EDTA. The homogenate is centrifuged at 39,000×g for 10 min. The resulting pellet is resuspended in Tris.HCl buffer, 70.0 mM, pH 7.5 and recentrifuged at 39,000×g for 10 min. The final pellet is resuspended in 50.0 mM Tris.HCl buffer pH 7.4 containing 120 mM NaCl and 5.0 mM KCl to give 1.0-2.0 mg protein per ml of suspension.
Binding to Vasopressin V1 receptor subtype in Human Platelet Membranes
In wells of 96 well format microtiter plate, add 100 μl of 50.0 mM Tris.HCl buffer containing 0.2% BSA and a mixture of protease inhibitors (aprotinin, leupeptin etc.). Then add 20 μl of [^3 H]Ligand (Manning or Arg^8 Vasopressin), to give final concentrations ranging from 0.01 to 10.0 nM. Initiate the binding by adding 80.0 μl of platelet suspension (approx. 100 μg protein). Mix all reagents by pipetting the mixture up and down a few times. Non specific binding is measured in the presence of 1.0 μM of unlabeled ligand (Manning or Arg^8 Vasopressin). Let the mixture stand undisturbed at room temperature for ninety (90) min. Upon this time, rapidly filter off the incubate under vacuum suction over GF/B filters, using a Brandel® Harvester. Determine the radioactivity caught on the filter disks by the addition of liquid scintillant and counting in a liquid scintillator.

[2] = target: T2, Rat Kidney Medullary V2 Receptors (Rattus norvegicus, UniProt Q00788); test: biochemical; format: binding
T2 construct: Medullary tissues from rat kidneys are dissected out; from tissue; host or cells: rat kidney medulla membranes

[3] = target: T3, oxytocin receptors (Rattus norvegicus, UniProt P70536); test: Oxytocin Receptor Binding; settings: for IC50: rat uterine membranes, [3H]oxytocin
T3 sequence (P70536 1-388): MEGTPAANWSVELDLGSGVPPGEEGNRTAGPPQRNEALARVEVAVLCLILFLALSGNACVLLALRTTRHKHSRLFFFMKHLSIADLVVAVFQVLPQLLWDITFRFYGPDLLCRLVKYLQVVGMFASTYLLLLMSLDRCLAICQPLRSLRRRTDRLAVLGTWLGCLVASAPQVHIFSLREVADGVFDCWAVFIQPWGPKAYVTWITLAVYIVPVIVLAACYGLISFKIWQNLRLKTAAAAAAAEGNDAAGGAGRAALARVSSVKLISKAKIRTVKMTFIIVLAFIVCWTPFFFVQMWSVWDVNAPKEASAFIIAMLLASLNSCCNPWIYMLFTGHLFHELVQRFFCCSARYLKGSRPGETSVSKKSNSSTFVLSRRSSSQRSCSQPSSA
Description: Female Sprague-Dawley rats weighing approximately 200-250 g are injected intramuscularly (i.m.) with 0.3 mg/kg of body weight of diethylstilbestrol (DES). The rats are sacrificed 18 hours later under pentobarbital anesthesia. The uteri are dissected out, cleaned of fat and connective tissues and rinsed in 50 ml of normal saline. The tissue pooled from six rats is homogenized in 50 ml of 0.01 mM Tris.HCl, containing 0.5 mM dithiothreitol and 1.0 mM EDTA, adjusted to pH 7.4, using a polytron at setting 6 with three passes of 10 sec each. The homogenate is passed through two (2) layers of cheesecloth and the filtrate centrifuged at 1000×g for 10 min. The clear supernatant is removed and recentrifuged at 165,000×g for 30 min. The resulting pellet containing the oxytocin receptors is resuspended in 50.0 mM Tris.HCl containing 5.0 mM MgCl2 at pH 7.4, to give a protein concentration of 2.5 mg/ml of tissue suspension. This preparation is used in subsequent binding assays with [^3 H]Oxytocin.
Binding of 3,5-[^3 H]Oxytocin ([^3 H]OT) to its receptors is done in microtiter plates using [^3 H]OT, at various concentrations, in an assay buffer of 50.0 mM Tris.HCl, pH 7.4 and containing 5.0 mM MgCl2, and a mixture of protease inhibitors: BSA, 0.1 mg; aprotinin, 1.0 mg; 1,10-phenanthroline, 2.0 mg; trypsin, 10.0 mg; and PMSF, 0.3 mg per 100 ml of buffer solution. Non-specific binding is determined in the presence of 1.0 uM unlabeled OT. The binding reaction is terminated after 60 min., at 220° C., by rapid filtration through glass fiber filters using a Brandel® cell harvester (Bio-medical Research and Development Laboratories, Inc., Gaithersburg, Md.). Competition experiments are conducted at equilibrium using 1.0 nM [^3 H]OT and varying the concentration of the displacing agents. The concentrations of agent displacing 50% of [^3 H]OT at its sites (IC50) are calculated by a computer assisted LUNDON-2 program (LUNDON SOFTWARE INC., Ohio, USA).

[4] = target: T4, Human V2 Vasopressin Receptor (Homo sapiens, UniProt P30518); test: Binding to Membranes of Mouse Fibroblast Cell Line (LV-2) Transfected with the cDNA Expressing the Human V2 Vasopressin Receptor
T4 construct: expressed in transfected cells; host or cells: mouse fibroblast cell line LV-2
Description: Binding to Membranes of Mouse Fibroblast Cell Line (LV-2) Transfected with the cDNA Expressing the Human V2 Vasopressin Receptor Membrane Preparation
Flasks of 175 ml capacity, containing attached cells grown to confluence, are cleared of culture medium by aspiration. The flasks containing the attached cells are rinsed with 2×5 ml of phosphate buffered saline (PBS) and the liquid aspirated off each time. Finally, 5 ml of an enzyme free dissociation Hank's based solution (Specialty Media, Inc., Lafayette, N.J.) is added and the flasks are left undisturbed for 2 min. The content of all flasks is poured into a centrifuge tube and the cells pelleted at 300×g for 15 min. The Hank's based solution is aspirated off and the cells homogenized with a polytron at setting #6 for 10 sec in 10.0 mM Tris.HCl buffer, pH 7.4 containing 0.25M sucrose and 1.0 mM EDTA. The homogenate is centrifuged at 1500×g for 10 min to remove ghost membranes. The supernatant fluid is centrifuged at 100,000×g for 60 min to pellet the receptor protein. Upon completion, the pellet is resuspended in a small volume of 50.0 mM Tris.HCl buffer, pH 7.4. The protein content is determined by the Lowry method and the receptor membranes are suspended in 50.0 mM Tris.HCl buffer containing 0.1 mM phenylmethylsulfonylfluoride (PMSF) and 0.2% bovine serum albumin (BSA) to give 2.5 mg receptor protein per ml of suspension.
For binding experiments, the following is added in μl volume to wells of a 96 well format of a microtiter plate: 100.0 μl of 100.0 mM Tris.HCl buffer containing 0.2% heat inactivated BSA, 10.0 mM MgCl2 and a mixture of protease inhibitors: leupeptin, 1.0 mg %; aprotinin, 1.0 mg %; 1,10-phenanthroline, 2.0 mg %; trypsin inhibitor, 10.0 mg % and 0.1 mM PMSF, 20.0 μl of [^3 H] Arginine^8, vasopressin (S.A. 75.0 Ci/mmole) at 0.8 nM and the reaction initiated by the addition of 80.0 μl of tissue membranes (200.0 μg tissue protein). The plates are left undisturbed on the bench top for 120 min to reach equilibrium. Non specific binding is assessed in the presence of 1.0 μm of unlabeled ligand, added in 20 μl volume. For test compounds, these are solubilized in 50% dimethylsulfoxide (DMSO) and added in 20.0 μl volume to a final incubation volume of 200 μl. Upon completion of binding, the content of each well is filtered off, using a Brandel® cell Harvester (Gaithersburg, Md.). The radioactivity trapped on the filter disk by the ligand-receptor complex is assessed by liquid scintillation counting in a Packard LS Counter, with an efficiency of 65% for tritium. The data are analyzed for IC50 values by the LUNDON-2 program for competition (LUNDON SOFTWARE, Ohio).

[5] = target: Rat Hepatic V1 Receptors (Rattus norvegicus, UniProt P30560); test: Binding Assay to Rat Hepatic V1 Receptors
Description: Binding Assay to Rat Hepatic V1 Receptors
Rat liver plasma membranes expressing the vasopressin V1 receptor subtypes are isolated by sucrose density gradient according to the method described by Lesko et al, (1973). These membranes are quickly suspended in 50.0 mM Tris.HCl buffer, pH 7.4, containing 0.2% bovine serum albumin (BSA) and 0.1 mM phenylmethylsulfonylfluoride (PMSF) and kept frozen at -70° C. until used in subsequent binding experiments. For binding experiments, the following is added to the wells of a ninety-six well format microtiter plate: 100 μl of 100.0 mM Tris.HCl buffer containing 10.0 mM MgCl2, 0.2% heat inactivated BSA and a mixture of protease inhibitors: leupeptin, 1.0 mg %; aprotinin, 1.0 mg %; 1,10-phenanthroline,2.0 mg %; trypsin inhibitor, 10.0 mg % and 0.1 mM PMSF, 20.0 μl of [phenylalanyl-3,4,5,-^3 H] vaso-pressin (S.A. 45.1 Ci/mmole) at 0.8 nM, and the reaction initiated by the addition of 80 μl of tissue membranes containing 20 μg of tissue protein. The plates are kept undisturbed on the bench top at room temperature for 120 min. to reach equilibrium. Non-specific samples are assayed in the presence of 0.1 μm of the unlabeled antagonist phenylalanylvasopressin, added in 20.0 μl volume. For test compounds, these are solubilized in 50% dimethylsulfoxide (DMSO) and added in 20.0 μl volume to a final incubation volume of 200 μl. Upon completion of binding, the content of each well is filtered off, using a Brandel® cell Harvester (Gaithersburg, Md.). The radioactivity trapped on the filter disk by the ligand-receptor complex is assessed by liquid scintillation counting in a Packard LS Counter, with an efficiency of 65% for tritium. The data are analyzed for IC50 values by the LUNDON-2 program for competition (LUNDON SOFTWARE, Ohio).

[6] = test system: Endogenous Arginine Vasopressin Antidiuretic (V2) Response in Conscious Rats; test: Antagonism of Endogenous Arginine Vasopressin Antidiuretic (V2) Response in Conscious Rats (urine volume); format: in vivo, rat (Sprague-Dawley); settings: 10 mg/kg rat p.o.; 4 hour collection
Description: Effects on the Antagonism of Endogenous Arginine Vasopressin Antidiuretic (V2) Response in Conscious Rats with Free Access to Water Drinking Before but not During the Experiment:
Male or female normotensive Sprague-Dawley rats (Charles River Laboratories, Inc., Kingston, N.Y.) of 400-450 g body weight were supplied with Laboratory Rodent Feed #5001 (PMI Feeds, Inc., Richmond, Id.) and water ad libitum. On the day of test, rats were placed individually into metabolic cages equipped with stainless steel screens (to separate the feces from the urine) and funnels for collection of urine. Vehicle or reference agent was given at various oral doses. During the test, rats were not provided with water or food. Urine was collected for four hours after dosing of the test compound. At the end of four hours, urine volume was measured. Urinary osmolality was determined using a Fiske One-Ten Osmometer (Fiske Associates, Norwood, Mass. 02062) or an Advanced CRYOMATIC Osmometer, Model 3C2 (Advanced Instruments, Norwood, Mass.). Determinations of Na^+, K^+ and Cl^- ion were carried out using ion specific electrodes in a Beckman SYNCHRON EL-ISE Electrolyte System analyzer. In the following results, increased urine volume and decreased osmolality relative to AVP-control indicates activity.

[7] = LV-2 cells transfected with human V2 receptor cDNA, Table 5, read-out: Vasopressin Binding Human V2 Receptor

T2 sequence (Q00788 whole entry): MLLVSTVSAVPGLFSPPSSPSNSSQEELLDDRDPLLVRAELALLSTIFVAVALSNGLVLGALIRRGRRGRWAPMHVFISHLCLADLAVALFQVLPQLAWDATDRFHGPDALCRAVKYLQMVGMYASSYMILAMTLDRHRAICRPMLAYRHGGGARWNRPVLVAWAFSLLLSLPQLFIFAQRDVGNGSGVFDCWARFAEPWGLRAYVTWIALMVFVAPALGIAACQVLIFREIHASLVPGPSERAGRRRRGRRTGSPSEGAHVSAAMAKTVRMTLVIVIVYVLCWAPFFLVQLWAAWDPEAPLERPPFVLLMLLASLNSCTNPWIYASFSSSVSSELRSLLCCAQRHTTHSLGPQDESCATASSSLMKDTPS
T1 sequence (P37288 whole entry): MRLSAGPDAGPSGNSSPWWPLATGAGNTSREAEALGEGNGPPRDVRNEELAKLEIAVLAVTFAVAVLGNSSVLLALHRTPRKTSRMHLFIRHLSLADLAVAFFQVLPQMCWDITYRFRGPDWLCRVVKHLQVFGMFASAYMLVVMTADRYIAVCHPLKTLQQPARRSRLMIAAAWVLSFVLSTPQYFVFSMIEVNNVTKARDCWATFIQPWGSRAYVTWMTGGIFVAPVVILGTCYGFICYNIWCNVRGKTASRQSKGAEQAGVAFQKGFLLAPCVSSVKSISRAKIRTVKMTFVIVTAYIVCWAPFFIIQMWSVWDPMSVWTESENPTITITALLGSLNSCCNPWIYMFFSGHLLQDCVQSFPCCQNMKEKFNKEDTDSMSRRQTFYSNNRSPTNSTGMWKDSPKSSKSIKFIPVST
T4 sequence (P30518 whole entry): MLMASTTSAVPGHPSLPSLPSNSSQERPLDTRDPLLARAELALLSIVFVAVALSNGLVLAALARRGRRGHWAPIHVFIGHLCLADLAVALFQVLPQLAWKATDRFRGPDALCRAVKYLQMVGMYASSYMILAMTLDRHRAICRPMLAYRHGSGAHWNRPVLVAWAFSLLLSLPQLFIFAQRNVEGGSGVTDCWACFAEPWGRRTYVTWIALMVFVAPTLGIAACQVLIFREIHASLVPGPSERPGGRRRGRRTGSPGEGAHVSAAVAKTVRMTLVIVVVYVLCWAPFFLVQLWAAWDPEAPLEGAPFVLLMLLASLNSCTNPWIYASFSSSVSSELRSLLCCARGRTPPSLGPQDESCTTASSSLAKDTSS
Chain of Rat Hepatic V1 Receptors (P30560 whole entry): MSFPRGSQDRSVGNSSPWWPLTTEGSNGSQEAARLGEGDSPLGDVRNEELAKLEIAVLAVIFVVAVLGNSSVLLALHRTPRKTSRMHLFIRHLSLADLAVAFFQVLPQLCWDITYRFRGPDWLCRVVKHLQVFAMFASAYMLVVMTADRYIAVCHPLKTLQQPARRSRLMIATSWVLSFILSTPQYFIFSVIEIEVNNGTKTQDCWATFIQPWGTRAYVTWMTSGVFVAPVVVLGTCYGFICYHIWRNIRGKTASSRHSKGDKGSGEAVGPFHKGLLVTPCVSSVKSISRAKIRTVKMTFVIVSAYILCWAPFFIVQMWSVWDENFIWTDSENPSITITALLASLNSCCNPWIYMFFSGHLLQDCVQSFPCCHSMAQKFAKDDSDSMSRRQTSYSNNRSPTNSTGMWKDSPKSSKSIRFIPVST

Cc1c(F)cccc1C(=O)Nc1ccc(C(=O)N2Cc3cccn3Cc3ccccc32)cn1 [Example 4]
IC50 ([1]; * V1 receptor subtype in human platelet): 44 nM | IC50 [2]: 1 nM | inhibition at 10 µM [3]: 100% | IC50 [3]: 670 nM

COc1cc(C(=O)Nc2ccc(C(=O)N3Cc4cccn4Cc4ccccc43)cn2)cc(OC)c1OC [Example 5]
inhibition at 10 µM ([1]; 1.5 h, * human platelet V1): 51% | inhibition at 10 µM [3]: 93% | inhibition at 10 µM ([4]; ** human V2, LV-2 cell membranes, at 10 μM): 47%

O=C(Nc1ccc(C(=O)N2Cc3cccn3Cc3ccccc32)cn1)c1ccc(F)cc1Cl [Example 9]
IC50 [5]: 6 nM | IC50 [2]: 1.1 nM | inhibition at 2.5 µM ([3]; dose 2.5 μM): 96% | IC50 [3]: 170 nM | IC50 ([4]; ** LV-2 cells transfected with human V2 receptor cDNA, read-out: V2 IC50 (**human V2 receptor)): 0.9 nM

COc1cc(C(=O)Nc2ccc(C(=O)N3Cc4ccc(CN(C)C)n4Cc4ccccc43)cn2)cc(OC)c1OC [Example 133, N-[5-[[3-[(Dimethylamino)methyl]-[5H-pyrrolo[2,1-c][1,4]benzodiazepin-10(11H)]yl]carbonyl]-2-pyridinyl]-3,4,5-trimethoxybenzamide]
inhibition at 10 µM ([1]; 1.5 h, * human platelet V1): 11% | inhibition at 10 µM ([2]; at 10 μM): 21% | inhibition at 10 µM [3]: 59%

CN(C)CCCNc1ncccc1C(=O)Nc1ccc(C(=O)N2Cc3cccn3Cc3ccccc32)cc1 [Example 335, N-[4-(5H-pyrrolo[2,1-c][1,4]benzodiazepin-10(11H)-ylcarbonyl)phenyl]-2-[(3-dimethylaminopropyl)amino]pyridine-3-carboxamide]
inhibition at 1 µM ([1]; 1.5 h, * human platelet V1, at 1 μM): 100% | inhibition at 1 µM ([2]; at 1 μM): 60%

CN(C)Cc1ccc2n1Cc1ccccc1N(C(=O)c1ccc(NC(=O)c3ccccc3-c3ccccc3)cc1O)C2 [Example 372]
Urine Volume [6]: 30.3 ml/4 hrs | IC50 [4, 7]: 15.9 nM

CN(C)CCN(C)Cc1ccc2n1Cc1ccccc1N(C(=O)c1ccc(NC(=O)c3ccccc3-c3ccccc3)cc1Cl)C2 [Example 375]
Urine Volume [6]: 44.2 ml/4 hrs

CN(C)C1CCN(Cc2ccc3n2Cc2ccccc2N(C(=O)c2ccc(NC(=O)c4ccccc4-c4ccccc4)cc2Cl)C3)CC1 [Example 376, {3-chloro-4-[3-(4-dimethylamino-piperidine-1-ylmethyl)-5H,11H-pyrrolo[2,1-c][1,4]benzodiazepine-10-carbonyl]-phenyl}-biphenyl-2-carboxylic acid amide]
Urine Volume [6]: 23.8 ml/4 hrs

O=C(Nc1ccc(C(=O)N2Cc3cccn3Cc3ccccc32)c(Cl)c1)c1ccccc1-n1cccc1 [Example 377, N-[3-Chloro-4-(5H,11H-pyrrolo{2,1-c][1,4]benzodiazepine-10-carbonyl)-phenyl]-2-pyrrol-1-yl-benzamide]
Urine Volume [6]: 13.2 ml/4 hrs | IC50 [4, 7]: 4.5 nM

O=C(Nc1ccc(C(=O)N2Cc3cccn3Cc3ccccc32)c(Cl)c1)c1cccc2cccnc12 [Example 378, Ouinoline-8-carboxylic acid [4-(5H,11H-pyrrolo[2,1-c][1,4]benzodiazepine-10-carbonyl)-3-phenyl]-amide]
Urine Volume [6]: 11.7 ml/4 hrs | IC50 [4, 7]: 69.1 nM

CN(C)Cc1ccc2n1Cc1ccccc1N(C(=O)c1ccc(NC(=O)C3=C(c4ccccc4)CCC3)cc1Cl)C2 [Example 379, [3-Chloro-4-(3-dimethylaminomethyl-5H,11H-pyrrolo[2,1-c][1,4]benzodiazepine-10-carbonyl)-phenyl]-2-phenylcyclopent-1-enecarboxylic acid amide]
Urine Volume [6]: 18.9 ml/4 hrs | IC50 [4, 7]: 12.3 nM
